From ChEMBL document CHEMBL4414645, “Development of Robust 17(R),18(S)-Epoxyeicosatetraenoic Acid (17,18-EEQ) Analogues as Potential Clinical Antiarrhythmic Agents” (J Med Chem, 2019)
Active and inactive are the calls of the source. No cut-off for these calls is given here.

What was measured:
Cytochrome P450 2J2 = target: T1, Cytochrome P450 2J2 (Homo sapiens, UniProt P51589); assay: Inhibition of recombinant human CYP2J2 expressed in baculovirus infected insect cells co-expressing NADPH-CYP reductase and cytochrome b5 assessed as reduction in CYP2J2-mediated EPA epoxidation by measuring sum of EEQ and DiHETEs level at 1 to 50 uM using EPA as substrate preincubated for 5 mins followed by NADPH addition and measured after 15 mins by LCMS/MS analysis; type: ADME; settings: recombinant enzyme, 0.25 h
T1 sequence (P51589 whole entry): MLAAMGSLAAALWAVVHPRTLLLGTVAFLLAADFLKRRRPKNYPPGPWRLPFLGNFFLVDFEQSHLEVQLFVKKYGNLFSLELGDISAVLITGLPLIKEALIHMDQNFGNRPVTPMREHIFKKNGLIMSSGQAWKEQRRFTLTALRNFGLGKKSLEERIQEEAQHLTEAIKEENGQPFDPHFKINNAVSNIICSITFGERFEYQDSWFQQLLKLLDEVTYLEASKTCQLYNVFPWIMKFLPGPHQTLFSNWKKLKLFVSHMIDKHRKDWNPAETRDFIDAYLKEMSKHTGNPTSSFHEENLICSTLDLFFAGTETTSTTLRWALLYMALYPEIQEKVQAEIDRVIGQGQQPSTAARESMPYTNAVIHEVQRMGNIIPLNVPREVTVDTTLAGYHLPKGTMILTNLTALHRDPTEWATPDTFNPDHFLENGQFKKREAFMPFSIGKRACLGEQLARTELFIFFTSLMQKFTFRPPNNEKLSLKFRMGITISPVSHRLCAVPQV

[1] = target: T2, Bifunctional epoxide hydrolase 2 (Homo sapiens) (UniProt P34913); assay: Inhibition of N-terminal His-tagged recombinant human soluble epoxide hydrolase (2 to 555 residues) expressed in Sf21 insect cells at 10 uM using as 14,15-EET as substrate after 10 mins by reversed-phase HPLC assay relative to control
T2 sequence (whole entry): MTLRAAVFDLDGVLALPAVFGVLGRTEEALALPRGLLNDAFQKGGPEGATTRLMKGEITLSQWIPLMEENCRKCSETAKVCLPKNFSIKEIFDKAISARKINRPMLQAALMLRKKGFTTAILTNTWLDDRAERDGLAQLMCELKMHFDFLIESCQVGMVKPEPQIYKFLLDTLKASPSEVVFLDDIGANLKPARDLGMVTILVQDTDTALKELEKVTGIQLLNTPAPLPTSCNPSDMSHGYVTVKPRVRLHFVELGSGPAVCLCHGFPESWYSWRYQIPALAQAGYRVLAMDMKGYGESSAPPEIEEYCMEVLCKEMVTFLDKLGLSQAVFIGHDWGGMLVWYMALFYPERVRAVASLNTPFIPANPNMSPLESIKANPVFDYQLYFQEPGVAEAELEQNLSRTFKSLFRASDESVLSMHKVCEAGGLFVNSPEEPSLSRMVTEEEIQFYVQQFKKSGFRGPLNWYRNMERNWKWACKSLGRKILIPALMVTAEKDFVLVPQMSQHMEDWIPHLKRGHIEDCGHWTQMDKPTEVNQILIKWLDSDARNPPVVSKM

[2] = Negative chronotropic activity in Wistar rat neonatal cardiomyocytes assessed as change in basal beating rate after 7 mins by inverted microscopic method; type: functional
[3] = target: T2, Bifunctional epoxide hydrolase 2 (Homo sapiens); settings: Sf21, at 1 µM
Description: Inhibition of N-terminal His-tagged recombinant human soluble epoxide hydrolase (2 to 555 residues) expressed in Sf21 insect cells at 1 uM using as 14,15-EET as substrate after 10 mins by reversed-phase HPLC assay relative to control

[4] = Apparent permeability across apical to basolateral side in human Caco2 cells at 10 uM after 15 to 90 mins by LC-ESI-MS/MS analysis; type: ADME, cell-based; settings: Caco-2
[5] = Apparent permeability across basolateral to apical side in human Caco2 cells at 10 uM after 15 to 90 mins by LC-ESI-MS/MS analysis; type: ADME, cell-based; settings: Caco-2
Cytochrome P450 [6] = assay: Drug metabolism in human liver microsomes assessed as CYP450-mediated formation of [+O] metabolites at 1 uM after 60 mins in presence of NADPH by LC-MS analysis; type: ADME; settings: 1 h
Cytochrome P450 [7] = assay: Drug metabolism in human liver microsomes assessed as CYP450-mediated formation of [+O] metabolites at 1 uM after 60 mins in absence of NADPH by LC-MS analysis; type: ADME; settings: 1 h
[8] = target: T3, Epoxide hydrolase 1/Bifunctional epoxide hydrolase 2 (Homo sapiens, UniProt P07099+P34913); assay: Drug metabolism in human liver microsomes assessed as microsomal/soluble epoxide hydrolase mediated formation of [+O + H2O] metabolites at 1 uM after 60 mins in presence of NADPH by LC-MS analysis; type: ADME; settings: 1 h
T3 sequence (P07099 whole entry): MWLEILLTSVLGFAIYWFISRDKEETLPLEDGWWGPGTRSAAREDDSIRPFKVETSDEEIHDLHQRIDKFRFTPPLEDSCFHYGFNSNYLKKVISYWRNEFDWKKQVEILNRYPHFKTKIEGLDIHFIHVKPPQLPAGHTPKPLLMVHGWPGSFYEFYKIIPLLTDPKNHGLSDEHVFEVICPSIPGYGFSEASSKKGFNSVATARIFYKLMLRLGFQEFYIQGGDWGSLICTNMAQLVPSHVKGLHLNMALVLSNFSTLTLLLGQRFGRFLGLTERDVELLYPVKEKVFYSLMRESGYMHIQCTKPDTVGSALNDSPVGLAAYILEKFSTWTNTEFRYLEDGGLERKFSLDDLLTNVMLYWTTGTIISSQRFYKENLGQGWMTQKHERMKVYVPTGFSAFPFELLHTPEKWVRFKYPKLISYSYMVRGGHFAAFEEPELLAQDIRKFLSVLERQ
T3 sequence (P34913 whole entry): T2 sequence (whole entry)

[9] = target: T3, Epoxide hydrolase 1/Bifunctional epoxide hydrolase 2; assay: Drug metabolism in human liver microsomes assessed as microsomal/soluble epoxide hydrolase mediated formation of [+O + H2O] metabolites at 1 uM after 60 mins in absence of NADPH by LC-MS analysis; type: ADME; settings: 1 h
[10] = Negative chronotropic activity in Wistar rat neonatal cardiomyocytes assessed as decrease in basal beating rate after 7 mins by inverted microscopic method; type: functional, cell-based
[11] = Negative chronotropic activity in Wistar rat neonatal cardiomyocytes assessed as changes to basal beating rate after 7 mins by inverted microscopic method; type: functional
[12] = Aqueous solubility of the compound in pH 7.4 potassium phosphate buffer at 2 mg after 1 to 24 hrs by RP-HPLC method; type: physicochemical
[13] = Stability in human plasma assessed as compound remaining at 10 uM measured up to 60 mins by LC-ESI-MS/MS analysis; type: ADME, cell-free; settings: read-out: Stability
Rattus norvegicus [14] = assay: Antiarrhythmic activity in Wistar rat model of coronary artery ligation-induced myocardial infarction assessed as reduction in total time on development of ventricular tachycardia at 100 ug, iv administered via bolus pretreated for 10 mins followed by coronary artery ligation measured for 45 mins; type: functional, organism-based
Rattus norvegicus [15] = assay: Antiarrhythmic activity in Wistar rat model of coronary artery ligation-induced myocardial infarction assessed as reduction in disease severity score at 100 ug, iv administered via bolus pretreated for 10 mins followed by left anterior descending artery occlusion measured for 45 mins; type: functional, organism-based
[16] = Intrinsic clearance in human hepatocytes assessed per million cells at 1 uM measured up to 180 mins by LC-ESI-MS/MS analysis; type: ADME, cell-based, Hepatocyte; settings: read-out: CLH
[17] = Half life in human hepatocytes at 1 uM measured up to 180 mins by LC-ESI-MS/MS analysis; type: ADME, cell-based, Hepatocyte

SMILES | inhibition [1] [%] | Activity [2] [bpm] | inhibition [3] [%] | other results
CCCCc1oc2ccc(NS(C)(=O)=O)cc2c1C(=O)c1ccc(OCCCN(CCCC)CCCC)cc1 [DRONEDARONE] | – | – | – | inhibition (INH) (Cytochrome P450 2J2): Active
CNC(=O)C(=O)NCCCC/C=C\CCCCCCCCCS(=O)(=O)[O-].[Na+] | 0 | -20.7 | 5.2 | –
CC[C@H]1OC(=O)[C@H](C)[C@@H](O[C@H]2C[C@@](C)(OC)[C@@H](O)[C@H](C)O2)[C@H](C)[C@@H](O[C@@H]2O[C@H](C)C[C@H](N(C)C)[C@H]2O)[C@](C)(O)C[C@@H](C)C(=O)[C@H](C)[C@@H](O)[C@]1(C)O [ERYTHROMYCIN] | – | – | – | Papp A→B at 10 µM [4]: 0.35 ×10⁻⁶ cm/s; Papp B→A at 10 µM [5]: 10.4 ×10⁻⁶ cm/s
CCCCCCCC/C=C\CCCCCCCC(=O)O [OLEIC ACID] | – | – | – | Drug metabolism (Cytochrome P450 [6]): Metabolite_Detected; Drug metabolism (Cytochrome P450 [7]): Metabolite_Notdetected; Drug metabolism [8]: Metabolite_Detected; Drug metabolism [9]: Metabolite_Notdetected
CNC(=O)C(=O)NCCCC/C=C\CCCCCCCCCC1=NO[S+]([O-])N1 (configuration not stated) | 10 | -24.3 | -0.2 | –
CNC(=O)C(=O)NCCCC/C=C\CCCCCCCCCc1noc(=O)[nH]1 | -9.2 | -11 | -5 | –
CC[C@@H]1O[C@@H]1C/C=C\C/C=C\C/C=C\C/C=C\CCCC(=O)O | – | – | – | EC50 [10]: 0.012 µM; Emax [11]: 28.9 bpm
CNC(=O)C(=O)NCCCC/C=C\CCCCCCCCCOc1cccc2sc(NC(C)=O)nc12 | 61.8 | -21.1 | 17 | –
CCCCc1oc2ccccc2c1C(=O)c1cc(I)c(OCCN(CC)CC)c(I)c1 [AMIODARONE] | – | – | – | inhibition (INH) (Cytochrome P450 2J2): Active
CC(C)(C)c1ccc(C(O)CCCN2CCC(C(O)(c3ccccc3)c3ccccc3)CC2)cc1 (configuration not stated) [TERFENADINE] | – | – | – | inhibition (INH) (Cytochrome P450 2J2): Active
CNC(=O)C(=O)NCCCC/C=C\CCCCCCCCCC(=O)N(C)CC(=O)[O-].[Na+] | 17.8 | -15.6 | -0.6 | –
CCNC(=O)NCCCC/C=C\CCCCCCCOCC(=O)O | 10.4 | -38 | 3.6 | –
CNC(=O)C(=O)NCCCCc1ccccc1CCCCCCCCCP(=O)([O-])[O-].[Na+].[Na+] | 1.8 | -21.8 | 1.3 | –
CNC(=O)C(=O)NCCCC/C=C\CCCCCCCCCC(=O)N[C@@H](C)C(=O)[O-].[Na+] | 18.7 | -1.1 | 1.9 | –
CNC(=O)C(=O)NCCCC/C=C\CCCCCCCCCP(=O)([O-])[O-].[Na+].[Na+] | 37.7 | -21.3 | 6.8 | –
CCNC(=O)NCCCC/C=C\CCCCCCCCCC(=O)O | 23.4 | – | 4.7 | –
CNC(=O)C(=O)NCCCC/C=C\CCCCCCCCCC(=O)NS(=O)(=O)c1ccccc1 | 1.1 | -23.1 | -3.2 | –
CNC(=O)C(=O)NCCCC/C=C\CCCCCCCCCP(=O)(OC)OC | 6.4 | -18 | 5 | –
CCNC(=O)NCCCC/C=C\CCCCCCCCCC(=O)OCCOCCOCCO | 76.6 | -19.8 | 26.5 | solubility [12]: Soluble
CC(C)[N+](C)(CCOC(=O)C1c2ccccc2Oc2ccccc21)C(C)C [PROPANTHELINE BROMIDE] | – | – | – | remaining at 1 h, 10 µM [13]: 2.6%
C[C@]12CC[C@H]3[C@@H](CCC4=CC(=O)CC[C@@]43C)[C@@H]1CC[C@@H]2O [TESTOSTERONE] | – | – | – | Papp A→B at 10 µM [4]: 32.5 ×10⁻⁶ cm/s; Papp B→A at 10 µM [5]: 58.9 ×10⁻⁶ cm/s
CNC(=O)C(=O)NCCCc1ccccc1CCCCCCP(=O)([O-])[O-].[Na+].[Na+] | -2.2 | -24.5 | -1 | –
CNC(=O)C(=O)NCCCC/C=C\CCCCCCCCCP(=O)(OC)OCOC(=O)C(C)(C)C (configuration not stated) | 18.6 | -16.2 | 5.4 | –
CNC(=O)C(=O)NCCCC/C=C\CCCCCCCCCP(=O)(OCOC(=O)C(C)(C)C)OCOC(=O)C(C)(C)C | 38.4 | -23.5 | 5.1 | –
CNC(=O)C(=O)NCCCC/C=C\CCCCCCCOCC(=O)OCCOCCOCCO | 1.9 | -25.2 | 1.3 | solubility [12]: Soluble; Activity (Rattus norvegicus [14]): Active; Activity (Rattus norvegicus [15]): Active
CCNC(=O)NCCCC/C=C\CCCCCCCCCC(=O)NCC(=O)[O-].[Na+] | 19.2 | -21.1 | 0.9 | solubility [12]: Soluble
CCOc1ccc2ccc(=O)oc2c1 [ETHOXYCOUMARIN] | – | – | – | hepatocyte CLint at 1 µM [16]: 43.2 µL/min/1e6 cells; half-life at 1 µM [17]: 20.5 min
CNC(=O)C(=O)NCCCC/C=C\CCCCCCCCCSc1ccccc1O | 1.5 | -7.5 | 0.4 | –
